Laboratory results from patent publication US10562912B2 (C&C Research Laboratories, priority 2013, dated 2020).

Tests used:
Format in all cases: cell-based
STAT3 = biological target: T1, STAT3 (Homo sapiens, UniProt P40763); assay: STAT3 reporter gene assay (luciferase), LNCaP stable cell line (pSTAT3-TA-luc), IL-6 stimulation
T1 construct: plasmid pSTAT3-TA-luc), which contains a stably operating STAT3 promoter; endogenous in cells
In short: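 LNCaP cells stably carrying pSTAT3-TA-luc, in RPMI1640 with 3% DCC-FBS, were treated with compound and then stimulated with 10 ng/mL IL-6 for 24–48 h at 37 °C. Luciferase activity was measured in lysates. A parallel plate measured viability by CellTiter-Glo, with stimulated 0.1% DMSO wells as the positive control.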

LNCaP = assay: Cell growth inhibition assay, prostate cancer cell line LNCaP (medium with 10 ng/mL IL-6); conditions: Homo sapiens, medium supplemented with 10 ng/mL of IL-6, 10,000 cells/well
DU-145 = assay: Cell growth inhibition assay, prostate cancer cell line DU-145; conditions: Homo sapiens, DU-145 prostate cancer cell line
In short: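 Readout was CellTiter-Glo luminescence after 72–96 h of compound exposure at 37 °C, 5% CO2. Plating density was 3,000 cells/well for DU-145 and HCT116 and 5,000 cells/well for SW626. Controls were 0.1% DMSO wells and medium-only wells.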

T1 sequence (P40763 whole entry): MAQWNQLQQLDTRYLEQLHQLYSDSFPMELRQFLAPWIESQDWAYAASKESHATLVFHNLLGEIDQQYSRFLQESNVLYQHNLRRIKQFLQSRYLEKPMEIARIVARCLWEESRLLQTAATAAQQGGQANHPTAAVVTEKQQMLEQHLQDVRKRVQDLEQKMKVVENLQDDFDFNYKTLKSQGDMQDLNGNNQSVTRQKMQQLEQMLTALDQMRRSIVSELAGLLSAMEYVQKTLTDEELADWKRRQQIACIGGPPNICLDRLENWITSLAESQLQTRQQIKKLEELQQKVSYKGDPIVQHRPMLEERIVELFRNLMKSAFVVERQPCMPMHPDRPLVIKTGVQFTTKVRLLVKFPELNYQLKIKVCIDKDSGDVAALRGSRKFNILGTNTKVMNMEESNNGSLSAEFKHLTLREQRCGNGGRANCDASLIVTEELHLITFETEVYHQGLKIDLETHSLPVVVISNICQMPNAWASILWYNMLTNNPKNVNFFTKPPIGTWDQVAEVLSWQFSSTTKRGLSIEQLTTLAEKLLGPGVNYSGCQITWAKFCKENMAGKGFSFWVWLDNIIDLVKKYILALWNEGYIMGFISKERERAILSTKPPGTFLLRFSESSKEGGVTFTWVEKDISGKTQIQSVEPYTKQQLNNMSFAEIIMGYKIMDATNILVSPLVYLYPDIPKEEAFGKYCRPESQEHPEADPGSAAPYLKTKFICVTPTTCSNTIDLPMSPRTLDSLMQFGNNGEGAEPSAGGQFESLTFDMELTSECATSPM

Structure (SMILES) | IC50 (STAT3) | IC50 (LNCaP) | IC50 (DU-145)
CS(=O)(=O)Nc1ccc2sc(C(=O)Nc3cc(Cl)cc(-c4ccc(F)cc4F)n3)cc2c1 [Example 331, N-(4-chloro-6-(2,4-difluorophenyl)pyridin-2-yl)-5-(methylsulfonamido)benzo[b]thiophene-2-carboxamide] | 0.051 µM | 0.15 µM | 0.034 µM
CS(=O)(=O)Nc1ccc2sc(C(=O)Nc3cc(Cl)cc(-c4ccsc4)c3)cc2c1 [Example 332, N-(3-chloro-5-(thiophen-3-yl)phenyl)-5-(methylsulfonamido)benzo[b]thiophene-2-carboxamide] | 0.061 µM | 0.17 µM | 0.042 µM
CS(=O)(=O)Nc1cc2cc(C(=O)Nc3cc(Cl)cc(-c4ccc(F)cc4F)c3)sc2cc1Cl [Example 333, 6-chloro-N-(5-chloro-2′,4′-difluoro-[1,1′-biphenyl]-3-yl)-5-(methylsulfonamido)benzo[b]thiophene-2-carboxamide] | 0.016 µM | 0.015 µM | 0.004 µM
Cn1cccc1-c1cc(Cl)cc(NC(=O)c2cc3cc(NS(C)(=O)=O)ccc3s2)c1 [Example 334, N-(3-chloro-5-(1-methyl-1H-pyrrol-2-yl)phenyl)-5-(methylsulfonamido)benzo[b]thiophene-2-carboxamide] | 0.096 µM | 0.14 µM | 0.059 µM
CS(=O)(=O)Nc1ccc2sc(C(=O)Nc3cc(Cl)cc(-c4ccc(F)cc4F)c3)c(O)c2c1 [Example 335, N-(5-chloro-2′,4′-difluoro-[1,1′-biphenyl]-3-yl)-3-hydroxy-5-(methylsulfonamido)benzo[b]thiophene-2-carboxamide] | 5.7 µM | > 1.1 µM | > 1.1 µM
CS(=O)(=O)Nc1ccc2sc(C(=O)Nc3cc(Cl)cc(-c4cccs4)c3)cc2c1 [Example 336, N-(3-chloro-5-(thiophen-2-yl)phenyl)-5-(methylsulfonamido)benzo[b]thiophene-2-carboxamide] | 0.13 µM | 0.21 µM | 0.065 µM
CS(=O)(=O)Nc1ccc2sc(C(=O)Nc3cc(-c4ccc(F)cc4F)cc(Cl)n3)cc2c1 [Example 337, N-(6-chloro-4-(2,4-difluorophenyl)pyridin-2-yl)-5-(methylsulfonamido)benzo[b]thiophene-2-carboxamide] | 0.27 µM | 0.94 µM | 0.43 µM
CS(=O)(=O)Nc1ccc2sc(C(=O)Nc3cc(Cl)cc(-c4cnccn4)c3)cc2c1 [Example 338, N-(3-chloro-5-(pyrazin-2-yl)phenyl)-5-(methylsulfonamido)benzo[b]thiophene-2-carboxamide] | 0.92 µM | > 1.1 µM | 0.43 µM
CS(=O)(=O)Nc1ccc2sc(C(=O)Nc3cc(Cl)cc(-c4cncc(Cl)n4)c3)cc2c1 [Example 339, N-(3-chloro-5-(6-chloropyrazin-2-yl)phenyl)-5-(methylsulfonamido)benzo[b]thiophene-2-carboxamide] | 0.76 µM | 0.56 µM | 0.31 µM
Cn1cncc1-c1cc(Cl)cc(NC(=O)c2cc3cc(NS(C)(=O)=O)ccc3s2)c1 [Example 340, N-(3-chloro-5-(1-methyl-1H-imidazol-5-yl)phenyl)-5-(methylsulfonamido)benzo[b]thiophene-2-carboxamide] | > 10 µM | > 1.1 µM | > 1.1 µM
CS(=O)(=O)Nc1ccc2sc(C(=O)Nc3cc(Cl)cc(C4(c5ccc(Cl)cc5)CC4)c3)cc2c1 [Example 432, N-(3-chloro-5-(1-(4-chlorophenyl)cyclopropyl)phenyl)-5-(methylsulfonamido)benzo[b]thiophene-2-carboxamide] | 0.049 µM | 0.073 µM | 0.06 µM
CS(=O)(=O)Nc1cc2cc(C(=O)Nc3cc(Cl)cc(C4(c5ccc(Cl)cc5)CC4)c3)sc2cc1Cl [Example 433, 6-chloro-N-(3-chloro-5-(1-(4-chlorophenyl)cyclopropyl)phenyl)-5-(methylsulfonamido)benzo[b]thiophene-2-carboxamide] | 0.013 µM | 0.01 µM | 0.006 µM
CN(c1ccc(Cl)cc1)c1cc(Cl)cc(NC(=O)c2cc3cc(NS(C)(=O)=O)c(Cl)cc3s2)c1 [Example 441, 6-chloro-N-(3-chloro-5-((4-chlorophenyl)(methyl)amino)phenyl)-5-(methylsulfonamido)benzo[b]thiophene-2-carboxamide] | 0.009 µM | 0.012 µM | 0.026 µM
CN(c1cc(Cl)cc(NC(=O)c2cc3cc(NS(C)(=O)=O)c(Cl)cc3s2)c1)c1ccc(F)cc1F [Example 442, 6-chloro-N-(3-chloro-5-((2,4-difluorophenyl)(methyl)amino)phenyl)-5-(methylsulfonamido)benzo[b]thiophene-2-carboxamide] | 0.021 µM | 0.036 µM | 0.013 µM
CC(C)Oc1cc(OC(F)(F)F)cc(N(C)c2cc(Cl)cc(NC(=O)c3cc4cc(NS(C)(=O)=O)ccc4s3)c2)c1 [Example 443, N-(3-chloro-5-((3-isopropoxy-5-(trifluoromethoxy)phenyl)(methyl)amino)phenyl)-5-(methylsulfonamido)benzo[b]thiophene-2-carboxamide] | 0.065 µM | 0.039 µM | 0.02 µM
CS(=O)(=O)Nc1ccc2sc(C(=O)Nc3cc(Cl)cc(Oc4ccc(F)cc4)c3)cc2c1 [Example 446, N-(3-chloro-5-(4-fluorophenoxy)phenyl)-5-(methylsulfonamido)benzo[b]thiophene-2-carboxamide] | 0.096 µM | 0.13 µM | 0.065 µM
COc1ccc(Oc2cc(Cl)cc(NC(=O)c3cc4cc(NS(C)(=O)=O)ccc4s3)c2)cc1 [Example 447, N-(3-chloro-5-(4-methoxyphenoxy)phenyl)-5-(methylsulfonamido)benzo[b]thiophene-2-carboxamide] | 0.27 µM | 0.49 µM | 0.14 µM
CS(=O)(=O)Nc1ccc2sc(C(=O)Nc3cc(Cl)cc(Oc4cc(F)ccc4F)c3)cc2c1 [Example 448, N-(3-chloro-5-(2,5-difluorophenoxy)phenyl)-5-(methylsulfonamido)benzo[b]thiophene-2-carboxamide] | 0.23 µM | 0.35 µM | 0.16 µM
CS(=O)(=O)Nc1cc2cc(C(=O)Nc3cc(Cl)cc(Oc4ccc(Cl)cc4)c3)sc2cc1Cl [Example 449, 6-chloro-N-(3-chloro-5-(4-chlorophenoxy)phenyl)-5-(methylsulfonamido)benzo[b]thiophene-2-carboxamide] | 0.024 µM | 0.022 µM | 0.01 µM
CS(=O)(=O)Nc1ccc2sc(C(=O)Nc3cc(Cl)cc(Oc4cccc(OC(F)(F)F)c4)c3)cc2c1 [Example 450, N-(3-chloro-5-(3-(trifluoromethoxy)phenoxy)phenyl)-5-(methylsulfonamido)benzo[b]thiophene-2-carboxamide] | 0.1 µM | 0.099 µM | 0.06 µM
CS(=O)(=O)Nc1ccc2sc(C(=O)Nc3cc(Cl)cc(Oc4ccc(C#N)cc4)c3)cc2c1 [Example 451, N-(3-chloro-5-(4-cyanophenoxy)phenyl)-5-(methylsulfonamido)benzo[b]thiophene-2-carboxamide] | 0.14 µM | 0.51 µM | 0.19 µM
CC(C)Oc1cc(Oc2cc(Cl)cc(NC(=O)c3cc4cc(NS(C)(=O)=O)ccc4s3)c2)cc(OC(F)(F)F)c1 [Example 452, N-(3-chloro-5-(3-isopropoxy-5-(trifluoromethoxy)phenoxy)phenyl)-5-(methylsulfonamido)benzo[b]thiophene-2-carboxamide] | 0.079 µM | 0.33 µM | 0.027 µM
CS(=O)(=O)Nc1cc2cc(C(=O)Nc3cc(Cl)cc(Oc4ccc(Cl)cc4)c3)sc2cc1Br [Example 453, 6-bromo-N-(3-chloro-5-(4-chlorophenoxy)phenyl)-5-(methylsulfonamido)benzo[b]thiophene-2-carboxamide] | 0.022 µM | 0.35 µM | 0.018 µM
CS(=O)(=O)Nc1ccc2sc(C(=O)Nc3cc(Cl)cc(Oc4ccc(OC(F)(F)F)cc4)c3)cc2c1 [Example 454, N-(3-chloro-5-(4-(trifluoromethoxy)phenoxy)phenyl)-5-(methylsulfonamido)benzo[b]thiophene-2-carboxamide] | 0.12 µM | 0.83 µM | 0.059 µM
CS(=O)(=O)Nc1ccc2sc(C(=O)Nc3cc(Cl)cc(Oc4cccc(C(F)(F)F)c4)c3)cc2c1 [Example 455, N-(3-chloro-5-(3-(trifluoromethyl)phenoxy)phenyl)-5-(methylsulfonamido)benzo[b]thiophene-2-carboxamide] | 0.19 µM | 0.22 µM | 0.19 µM
CS(=O)(=O)Nc1ccc2sc(C(=O)Nc3cc(Cl)cc(Oc4cccc(Cl)c4)c3)cc2c1 [Example 456, N-(3-chloro-5-(3-chlorophenoxy)phenyl)-5-(methylsulfonamido)benzo[b]thiophene-2-carboxamide] | 0.19 µM | 0.3 µM | 0.25 µM
COc1cccc(Oc2cc(Cl)cc(NC(=O)c3cc4cc(NS(C)(=O)=O)ccc4s3)c2)c1 [Example 457, N-(3-chloro-5-(3-methoxyphenoxy)phenyl)-5-(methylsulfonamido)benzo[b]thiophene-2-carboxamide] | 0.28 µM | 0.37 µM | 0.44 µM
